The record followed here is patent US11873496B2, “Methods of altering gene expression by perturbing transcription factor multimers that structure regulatory loops” (Whitehead Institute for Biomedical Research, priority 2017, dated 2024).

The target of data set [1] is T1, FKBP degron-tagged YY1 protein (Mus musculus, UniProt Q00899+Q8C7D2).
T1 construct: A clonal homozygous knock-in line expressing FKBP tagged YY1 was used for the degradation experiments; endogenous in cells; host or cells: V6.5 mES cells, clonal homozygous knock-in (repair plasmids pAW62.YY1.FKBP.knock-in.mCherry and pAW63.YY1.FKBP.knock-in.BFP)
Description: dTAG inducible degradation of FKBP tagged YY1 (western blot). The format is cell-based. As for the experimental part:
For the generation of the endogenously tagged lines, five hundred thousand mES cells were transfected with 2.5 ug Cas9 plasmid and 1.25 ug non-linearized repair plasmid 1 (pAW62.YY1.FKBP.knock-in.mCherry) and 1.25 ug non-linearized repair plasmid 2 (pAW63.YY1.FKBP.knock-in.BFP). Cells were sorted after 48 hours for the presence of GFP. Cells were expanded for five days and then sorted again for double positive mCherry and BFP cells. Thirty thousand mCherry+/BFP+ sorted cells were plated in a six-well plate in a 1:2 serial dilution (first well 15,000 cells, second well 7,500 cells, etc). The cells were grown for approximately one week in 2i medium and then individual colonies were picked using a stereoscope into a 96-well plate. Cells were expanded and genotyped by PCR (YY1_gPCR_3F/3R, Table S3). Clones with a homozygous knock-in tag were further expanded and used for experiments.
A clonal homozygous knock-in line expressing FKBP tagged YY1 was used for the degradation experiments. Cells were grown two passages off MEFs and then treated with dTAG-47 at a concentration of 500 nM for 24 hours.
The homozygous knock-in line expressing FKBP tagged YY1 was cultured on 2i+LIF media. Cells were treated with dTAG-47 at a concentration of 500 nM for 24 hours. After 24 hours of drug treatment, cells were washed three times with PBS and passaged onto a new plate. […]
(In general: A western blot detects proteins with antibodies after separation by electrophoresis.)

Data set [2] deals with YY1-YY1 enhancer-promoter interactions. Description: H3K27ac HiChIP of enhancer-promoter interactions after YY1 degradation and washout. The format is cell-based, mouse. The following applies: mES cells. As for the experimental part: HiChIP was performed as described in (Mumbach et al., 2016) with a few modifications. Ten million cells cross-linked for 10 min at room temperature with 1% formaldehyde in growth media and quenched in 0.125 M glycine. After washing twice with ice-cold PBS, the supernatant was aspirated and the cell pellet was flash frozen in liquid nitrogen and stored at −80° C.
Cross-linked cell pellets were thawed on ice, resuspended in 800 μL of ice-cold Hi-C lysis buffer (10 mM Tris-HCl pH 8.0, 10 mM NaCl, and 0.2% IGEPAL CA-630 with 1× cOmplete protease inhibitor (Roche, 11697498001)), and incubated at 4° C. for 30 minutes with rotation. Nuclei were pelleted by centrifugation at 2500 rcf for 5 min at 4° C. and washed once with 500 μL of ice-cold Hi-C lysis buffer. After removing supernatant, nuclei were resuspended in 100 μL of 0.5% SDS and incubated at 62° C. for 10 minutes. SDS was quenched by adding 335 μL of 1.5% Triton X-100 and incubating for 15 minutes at 37° C. After the addition of 50 μL of 10×NEB Buffer 2 (NEB, B7002) and 375 U of MboI restriction enzyme (NEB, R0147), chromatin was digested at 37° C. for 2 hours with rotation. Following digestion, MboI enzyme was heat inactivated by incubating the nuclei at 62° C. for 20 min. […]

The target in data set [3] is HA-tagged YY1. Description: co-immunoprecipitation from nuclear extract treated with RNase A before IP with anti-tag antibodies, western blot quantification.
For data set [4], the system named is linear DNA template containing YY1 binding sites. Kind of data set: In vitro DNA circularization assay (T4 DNA ligase). The format is biochemical. To be noted: 0.25 nM DNA, 0.12 μg/μL protein, 20° C.; competitor 100 nM. As for the experimental part: First, two plasmids (pAW49, pAW79) were generated. pAW49 contains YY1 binding sites separated by ˜3.5 kb of intervening DNA. pAW79 is identical except it contains filler DNA instead of the YY1 motifs. The intervening DNA was chosen based on looking at YY1 ChIP-seq and motif distribution in mES cells to identify regions that lacked YY1 occupancy and YY1 binding motifs. The YY1 binding motifs were chosen based on successful EMSAs (Sigova et al., 2015). Approximately 200 bp of sequence was added between the binding motifs and the termini in order to provide flexibility for the termini to ligate. The plasmid was built using Gibson assembly.
Next, a PCR was run using plasmid as a template to generate a linear piece of DNA (Table S5). This PCR product was PCR purified (Qiagen 28104) and then digested with BamHI (NEB R3136) and PCR purified. The BamHI digested template was used in the ligation assay.
The ligation assay was carried out as follows. Reactions were prepared on ice in 66 μL with the following components:
BSA control: 0.25 nM DNA, 1× T4 DNA ligase buffer (NEB B0202S), H2O, 0.12 μg/μL of BSA […]
Quantification was done using Image Lab version 5.2.1 (Bio-Rad Laboratories). First, band density of the starting product and ligation product were measured. Then the percent circularized was calculated: (ligation product)/(ligation product+starting band)*100. […]

T1 sequence (Q00899 with tags, fused parts or gaps): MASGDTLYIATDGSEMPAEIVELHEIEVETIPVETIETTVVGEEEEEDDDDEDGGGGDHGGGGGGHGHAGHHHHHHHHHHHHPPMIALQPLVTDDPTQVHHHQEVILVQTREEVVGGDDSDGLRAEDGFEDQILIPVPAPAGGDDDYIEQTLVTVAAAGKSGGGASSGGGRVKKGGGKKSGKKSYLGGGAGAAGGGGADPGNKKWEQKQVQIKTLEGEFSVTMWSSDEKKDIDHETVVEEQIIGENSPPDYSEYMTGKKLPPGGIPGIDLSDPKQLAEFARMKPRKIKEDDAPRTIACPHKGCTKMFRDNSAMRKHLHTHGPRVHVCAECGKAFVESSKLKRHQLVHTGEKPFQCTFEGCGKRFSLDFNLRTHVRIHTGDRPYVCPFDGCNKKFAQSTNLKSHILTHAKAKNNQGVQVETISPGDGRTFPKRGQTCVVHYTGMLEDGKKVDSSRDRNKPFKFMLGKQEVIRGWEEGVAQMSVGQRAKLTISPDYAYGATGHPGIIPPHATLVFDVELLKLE
T1 sequence (Q8C7D2 whole entry): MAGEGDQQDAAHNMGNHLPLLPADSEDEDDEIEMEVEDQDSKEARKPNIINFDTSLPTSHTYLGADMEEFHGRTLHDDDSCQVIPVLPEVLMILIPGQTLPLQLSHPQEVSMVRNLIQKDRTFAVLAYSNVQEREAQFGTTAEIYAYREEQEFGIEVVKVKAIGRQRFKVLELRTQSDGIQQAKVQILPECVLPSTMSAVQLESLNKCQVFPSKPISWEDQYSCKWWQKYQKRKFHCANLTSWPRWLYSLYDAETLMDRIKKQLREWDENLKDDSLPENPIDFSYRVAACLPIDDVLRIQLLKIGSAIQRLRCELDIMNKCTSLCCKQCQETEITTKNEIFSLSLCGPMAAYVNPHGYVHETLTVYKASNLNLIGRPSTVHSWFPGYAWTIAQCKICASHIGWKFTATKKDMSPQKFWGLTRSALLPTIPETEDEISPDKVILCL
T1 sequence (Q3U1J4 whole entry partner): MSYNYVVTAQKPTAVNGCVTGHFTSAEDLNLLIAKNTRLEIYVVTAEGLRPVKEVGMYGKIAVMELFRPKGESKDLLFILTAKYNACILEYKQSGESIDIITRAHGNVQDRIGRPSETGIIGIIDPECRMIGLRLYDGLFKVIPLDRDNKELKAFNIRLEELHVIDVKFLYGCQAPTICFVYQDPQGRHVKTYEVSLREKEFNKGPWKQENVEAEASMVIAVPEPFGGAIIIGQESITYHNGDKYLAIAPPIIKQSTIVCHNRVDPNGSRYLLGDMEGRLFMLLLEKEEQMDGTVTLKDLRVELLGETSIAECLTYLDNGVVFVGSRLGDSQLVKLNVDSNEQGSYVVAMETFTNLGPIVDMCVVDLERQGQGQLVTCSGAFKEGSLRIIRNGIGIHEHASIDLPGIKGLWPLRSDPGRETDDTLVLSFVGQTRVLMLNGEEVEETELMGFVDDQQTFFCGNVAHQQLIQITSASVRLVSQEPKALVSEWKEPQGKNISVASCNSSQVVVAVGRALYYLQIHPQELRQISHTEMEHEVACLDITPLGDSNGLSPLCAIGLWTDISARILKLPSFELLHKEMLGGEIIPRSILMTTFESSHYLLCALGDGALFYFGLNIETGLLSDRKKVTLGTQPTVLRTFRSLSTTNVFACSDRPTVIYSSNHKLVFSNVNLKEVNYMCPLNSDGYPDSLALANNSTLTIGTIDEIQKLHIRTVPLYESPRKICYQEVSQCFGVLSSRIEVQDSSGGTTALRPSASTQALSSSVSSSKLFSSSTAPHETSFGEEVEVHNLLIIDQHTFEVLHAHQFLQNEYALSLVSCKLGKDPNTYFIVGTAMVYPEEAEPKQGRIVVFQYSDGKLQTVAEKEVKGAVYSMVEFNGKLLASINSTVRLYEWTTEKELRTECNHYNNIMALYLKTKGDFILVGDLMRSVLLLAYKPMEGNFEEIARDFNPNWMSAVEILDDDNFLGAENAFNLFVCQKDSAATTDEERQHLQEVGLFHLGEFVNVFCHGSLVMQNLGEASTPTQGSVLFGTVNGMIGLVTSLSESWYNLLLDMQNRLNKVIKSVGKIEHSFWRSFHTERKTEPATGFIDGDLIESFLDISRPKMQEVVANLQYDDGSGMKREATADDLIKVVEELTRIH
Sequence of HA-tagged YY1 (P25490 whole entry): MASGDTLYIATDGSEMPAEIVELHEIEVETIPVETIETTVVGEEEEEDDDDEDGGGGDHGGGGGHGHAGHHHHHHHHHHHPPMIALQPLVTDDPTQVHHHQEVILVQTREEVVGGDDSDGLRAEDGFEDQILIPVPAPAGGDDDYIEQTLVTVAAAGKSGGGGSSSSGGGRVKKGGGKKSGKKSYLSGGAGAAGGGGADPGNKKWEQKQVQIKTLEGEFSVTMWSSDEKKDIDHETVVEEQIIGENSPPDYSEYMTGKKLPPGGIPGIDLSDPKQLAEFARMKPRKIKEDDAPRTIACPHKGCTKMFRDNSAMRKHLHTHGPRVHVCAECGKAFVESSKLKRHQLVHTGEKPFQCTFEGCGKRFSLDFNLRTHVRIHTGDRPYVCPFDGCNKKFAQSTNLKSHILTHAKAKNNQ

With `CC[C@H](C(=O)N1CCCC[C@H]1C(=O)O[C@H](CCc1ccc(OC)c(OC)c1)c1ccccc1OCC(=O)NCCCCCCCCNc1ccc2c(c1)C(=O)N(C1CCC(=O)NC1=O)C2=O)c1cc(OC)c(OC)c(OC)c1` (stereo partly drawn) [dTAG-47, (2S)-(1R)-3-(3,4-dimethoxyphenyl)-1-(2-(2-((8-((2-(2,6-dioxopiperidin-3-yl)-1,3-dioxoisoindolin-5-yl)amino)octyl)amino)-2-oxoethoxy)phenyl)propyl 1-((S)-2-(3,4,5-trimethoxyphenyl)butanoyl)piperidine-2-carboxylate], the YY1 protein degradation entry in data set [1] (FKBP degron tag knocked-in to both alleles of Yy1, mES cells, 24 hours treatment) is “rapid proteasome-mediated degradation”. In data set [1] (after 24 hours treatment at 500 nM, drug withdrawal), the “washout time allowing recovery of YY1 protein levels” value is 5 days. In data set [2] (treated), the “enhancer-promoter interactions after YY1 degradation (H3K27ac HiChIP)” value is recorded as “loss in enhancer-promoter interactions”. The “enhancer-promoter interactions after washout and recovery of YY1 levels (H3K27ac HiChIP)” value in data set [2] (washout) is recorded as “substantial increase in enhancer-promoter interactions”.

In data set [3], FLAG-tagged YY1 came in with a reduction in the amount of co-immunoprecipitated YY1 partner protein after RNase A treatment of 60%.

For “bovine serum albumin (BSA): control protein in the DNA circularization assay”, in data set [4], the “rate of DNA circularization” value was “did not increase the rate of DNA ligation”.

B1: competing 200 base pair DNA fragment: 200 base pair DNA fragment containing the YY1 consensus binding sequence, SEQ ID NO: 28 (nucleic acid)
DNA: GAGCAACAACAACAACGAACCGGTTCGACCTCCCCGGCCATCTTTCGACCTCCCCGGCCATCTTTCGACCTCCCCGGCCATCTTTCGACCTCCCCGGCCATCTTTCGACCTCCCCGGCCATCTTTCGACCTCCCCGGCCATCTTTCGACCTCCCCGGCCATCTTTCGACCTCCCGTCGACAGAGGCAGCAAAAGCCAGA
modifications: competitor DNA
For the molecule B1, the “rate of DNA circularization” value in data set [4] is “abrogated circularization”.
